Values after ≈ are worked out from the molar mass of the structure shown. Read-outs that look alike come from different tables or passages of the source.
Experiments:
[1] = Brine shrimp lethality bioassay; conditions: Artemia salina, in vivo; 24 h counts, mean (n = 3) ± SD
Method: In order to evaluate the toxicity of the compounds with antifungal activity obtained during separation, a test of lethality to Artemia salina brine shrimp was made. Concentrations of 1, 10, 100, and 500 ppm of each active fraction and each compound were tested. […] LC50 values greater than 200 ppm were considered non-toxic.

C. parapsilosis [2] = experiment: Broth microdilution antifungal assay (CLSI M27-A2), clinical isolates; format: cell-based, Candida parapsilosis
Method: (§1) Clinical isolates were provided by the Microbiology Department of the Medical School, UANL: isolates 97 and 98 of C. albicans, isolates 83 and 84 of C. glabrata, isolates 95 and 96 of C. parapsilosis, isolates 105 and 166 of C. tropicalis, and isolates 137 and 168 of C. krusei.
(§2) Inoculates from the above-mentioned isolates were prepared and growing on Sabouraud agar. The extracts were tested using microdilution assay according to the protocol M27-A2 defined by the Clinical Laboratory Standards Institute. Two clinical isolates were used for each species of Candida, and each test was made in duplicate. Isolates 83 and 84 of C. glabrata are resistant strains to fluconazole. Serial two-fold dilutions ranging from 2 to 500 μg/mL were made for all extracts, fractions, and isolated compounds. The minimal inhibitory concentration (MIC) was defined as the lowest tested extract concentration that inhibits 100% of organism growth compared to the growth of the drug-free control.

C. albicans = conditions: cited from earlier work
C. krusei [3] = experiment: Broth microdilution antifungal assay (CLSI M27-A2), clinical isolates; format: cell-based, Candida krusei
Method: as §1, §2

C. glabrata = experiment: as above; format: cell-based, Candida glabrata
Method: as §1, §2

Candida albicans = experiment: as above; format: cell-based
Method: as §1, §2

C. parapsilosis [4] = conditions: C. parapsilosis ATCC 20019; cited from earlier work
C. tropicalis [5] = experiment: Broth microdilution antifungal assay (CLSI M27-A2), clinical isolates; format: cell-based, Candida tropicalis
Method: as §1, §2

C. krusei [6] = conditions: C. krusei ATCC 20298; cited from earlier work
[7] = In vitro cytotoxic assay on Vero cell line (MTT); format: cell-based; conditions: African green monkey, Vero cells, mean (n = 3) ± SD
Method: The cytotoxicity assay was performed by the 3-(4,5-dimethylthiazol-2-yl) 2,5-diphenyltetrazolium bromide (MTT) assay as previously described. The Vero cell line was maintained in DMEM supplemented with 2% FBS, streptomycin, and penicillin at 1%. All cell cultures were incubated at 37 °C in a humidified atmosphere of 5% CO2. Cells were harvested, counted, and transferred into 96 well plates and incubated for 24 h prior to the addition of test compounds. Serial dilutions of test samples were prepared by dissolving compounds in DMSO followed by dilution with DMEM to yield the final DMSO concentration in the assay well as 1%. Stock solutions of fractions and compounds 1, 2, and 3 were prepared at […] and diluted further to yield concentrations ranging from 2000–15.6 μg/mL. The plates were incubated for 48 h. MTT (3-[4,5-dimethylthiazol-2-yl]-2,5-diphenyltetrazolium bromide) (5 mg) was dissolved in 1 mL of Phosphate Buffer Solution (PBS) and 10 μL of it was added to each of the 96 wells. The plates were incubated at 37 °C for 3 h. The solution in each well-containing media, unbound MTT and dead cells were removed by suction and 100 μL of DMSO was added to each well. The plates were then shaken and optical density was recorded using a microplate reader at 540 nm. Doxorubicin was used as positive control and DMSO as solvent control. The CC50 was determined as the concentration of extract required reducing cell viability by 50%, taking as 100%, the untreated cells. The experiments were performed in triplicate for each extract. In parallel, we performed the same experiment using untreated cells as a control.

Candida glabrata = conditions: cited from earlier work
C. tropicalis [8] = tested on: C. tropicalis; design: method as in doi:10.1016/j.phytol.2015.02.006; conditions: C. tropicalis ATCC 750; cited from earlier work
[9] = Lodderomyces parapsilosis, Cp isolate 95, read-out: MIC
[10] = Lodderomyces parapsilosis, Cp isolate 96, read-out: MIC
[11] = Pichia kudriavzevii, Ck isolate 137, read-out: MIC
[12] = Pichia kudriavzevii, Ck isolate 168, read-out: MIC
[13] = Nakaseomyces glabratus, C. glabrata, isolate not stated, read-out: MIC
[14] = Nakaseomyces glabratus, Cg isolate 83, fluconazole-resistant clinical isolate, read-out: MIC
[15] = Nakaseomyces glabratus, Cg isolate 84, fluconazole-resistant clinical isolate, read-out: MIC
[16] = Candida albicans, Ca isolate 97, read-out: MIC
[17] = Candida tropicalis, Ct isolate 105, read-out: MIC

| Molecule | LC50 at 24 h [1] | MIC (Candida albicans; Ca isolate 98) | MIC (C. tropicalis [5]; Ct isolate 166) | CC50 at 48 h [7] | MIC (C. parapsilosis [2]; [9]) | MIC (C. parapsilosis [2]; [10]) | MIC (C. krusei [3]; [11]) | MIC (C. krusei [3]; [12]) | MIC (C. glabrata; [13]) | MIC (C. glabrata; [14]) | MIC (C. glabrata; [15]) | MIC (Candida albicans; [16]) | MIC (C. tropicalis [5]; [17]) | further results |
| --- | --- | --- | --- | --- | --- | --- | --- | --- | --- | --- | --- | --- | --- | --- |
| C[C@@H]1O[C@@H](Oc2c(-c3ccc(O)c(O)c3)oc3cc(O)cc(O)c3c2=O)[C@H](O)[C@H](O)[C@H]1O [Compound 1, quercetin 3-O-α-L-rhamnoside] | > 500 µg/mL | 500 µg/mL (≈ 1120 µM) | >500 µg/mL | 1660 ± 81 µg/mL (≈ 3700 µM) | – | – | – | – | – | – | – | – | – | MIC (C. parapsilosis [2]; Cp isolate 95): 125 µg/mL (≈ 279 µM); MIC (C. parapsilosis [2]; Cp isolate 96): 125 µg/mL (≈ 279 µM); MIC (C. parapsilosis [2]; Lodderomyces parapsilosis): 125 µg/mL (≈ 279 µM); MIC (C. albicans; C. albicans ATCC 18804): below 250 μg/mL; MIC (C. krusei [3]; Ck isolate 137): 500 µg/mL (≈ 1120 µM); MIC (C. krusei [3]; Ck isolate 168): 500 µg/mL (≈ 1120 µM); MIC (C. krusei [3]; Pichia kudriavzevii): 500 µg/mL (≈ 1120 µM); MIC (C. glabrata; Cg isolate 83, fluconazole-resistant clinical isolate): 16 µg/mL (≈ 35.7 µM); MIC (C. glabrata; Cg isolate 84, fluconazole-resistant clinical isolate): 16 µg/mL (≈ 35.7 µM); MIC (C. glabrata; Nakaseomyces glabratus): 16 µg/mL (≈ 35.7 µM); MIC (Candida albicans; Ca isolate 97): 500 µg/mL (≈ 1120 µM); MIC (Candida albicans; Candida albicans): 500 µg/mL (≈ 1120 µM); MIC (C. parapsilosis [4]): below 250 μg/mL; MIC (C. tropicalis [5]; Candida tropicalis): > 500 µg/mL; MIC (C. krusei [6]): below 250 μg/mL; MIC (Candida glabrata; isolates 510, 493, 482, 531 of C. glabrata): 7.8 µg/mL (≈ 17.4 µM); MIC (C. tropicalis [8]): below 250 μg/mL |
| C[C@@H]1O[C@@H](Oc2c(-c3ccc(O)c(O)c3)oc3cc(O)cc(O)c3c2=O)[C@H](O[C@@H]2OC[C@@H](O)[C@H](O)[C@H]2O)[C@H](O)[C@H]1O [Compound 2, quercetin 3-O-α-L-rhamnopyranosyl-L-(2→1)-O-β-xylopyranoside] | 322.8 ± 0.009 µg/mL (≈ 556 µM) | >500 µg/mL | >500 µg/mL | > 2000 µg/mL | > 500 µg/mL | > 500 µg/mL | > 500 µg/mL | > 500 µg/mL | 63 µg/mL (≈ 109 µM) | 63 µg/mL (≈ 109 µM) | 63 µg/mL (≈ 109 µM) | > 500 µg/mL | > 500 µg/mL | – |
| C[C@@H]1O[C@@H](Oc2c(-c3ccc(O)cc3)oc3cc(O)cc(O)c3c2=O)[C@H](O[C@@H]2OC[C@@H](O)[C@H](O)[C@H]2O)[C@H](O)[C@H]1O [Compound 3, kaempferol 3-O-α-L-rhamnopyranosyl-L-(2→1)-O-β-xylopyranoside] | 254.8 ± 0.024 µg/mL (≈ 451 µM) | >500 µg/mL | >500 µg/mL | > 2000 µg/mL | > 500 µg/mL | > 500 µg/mL | > 500 µg/mL | > 500 µg/mL | 16 µg/mL (≈ 28.3 µM) | 16 µg/mL (≈ 28.3 µM) | 16 µg/mL (≈ 28.3 µM) | > 500 µg/mL | > 500 µg/mL | – |
| OC(Cn1cncn1)(Cn1cncn1)c1ccc(F)cc1F [Fluconazol, reference compound] | – | 4 µg/mL (≈ 13.1 µM) | 2 µg/mL (≈ 6.53 µM) | – | 0.5 µg/mL (≈ 1.63 µM) | 1 µg/mL (≈ 3.27 µM) | 32 µg/mL (≈ 104 µM) | 4 µg/mL (≈ 13.1 µM) | – | 32 µg/mL (≈ 104 µM) | 63 µg/mL (≈ 206 µM) | 4 µg/mL (≈ 13.1 µM) | 2 µg/mL (≈ 6.53 µM) | – |
| O=c1c(O)c(-c2ccc(O)cc2)oc2cc(O)cc(O)c12 [kaempferol, reference compound] | – | – | – | – | – | – | – | – | – | – | – | – | – | MIC (Candida glabrata; six clinical isolates of Candida glabrata including one resistant to fluconazole): 31.5 µg/mL (≈ 110 µM) |
| Kaempferol-3-O-rutinoside [reference compound] | – | – | – | – | – | – | – | – | – | – | – | – | – | MIC (C. albicans; Candida albicans ATCC 14053 and ATCC10231): 500 µg/mL |

From article PMC8510013, “Active Flavonoids from Colubrina greggii var. greggii S. Watson against Clinical Isolates of Candida spp” (Molecules, 2021)
